Assay results published in US9144595B2, “APLs for treating arthritis” (University of Tennessee Research Foundation, priority 2009, dated 2015).
Values joined by “and” are separate entries in the source; they are usually repeats but may differ in a detail not shown here. Identical values can stand only once.

Key:
[1] = test system: DR4 mice; test: Suppression of immunity to CII and arthritis in DR4 mice; assay type: in vivo, mouse; conditions: high-responder DR4 mice
Protocol: (§1) Assuming that CII263-270 was key to developing immunity to the intact CII molecule, a number of analog peptides where amino acids within this small segment were substituted with those found in the corresponding sites of nonarthritogenic type I collagen were prepared and tested. […] The APL A12 developed for this study has the following amino acid sequence: LGPKGQTGEBG[IAGNKGDQGPK]GEBGPA (SEQ ID NO: 3) where B=hydroxproline. The core determinant of human CII263-270 is bracketed. The underlined residues are those substituted to produce APL A12. The residues amino terminal and carboxy terminal to the core determinant is from the normal human CII sequence.

[2] = test system: RA CD4+ T cells; test: Intracellular IFNγ and IL-17 in CD4+ T cells of CII-stimulated RA PBMC (flow cytometry); assay type: cell-based, human; conditions: A12 10 μg/ml co-incubated with CII 50 μg/ml, 5 days; one RA patient; FIG. 2
Description: We assessed the effect of APL A12 added to cultures of RA PBMC stimulated with α1(II) on CD4^+ T cells expression of IFNγ and IL-17 as shown in FIG. 2.
The flow use an IFNγ scale on y-axis 295 and IL-17 on x-axis 290, 291, 292, 293, 294 (log scale). The results of the flow are shown for Control 210 including IFNγ+IL-17 flow 270 and IFNγ Control flow 285. The results of the flow are shown for CII+A12 220 including IFNγ+IL-17 flow 265 and IFNγ Control flow 280. The results of the flow are shown for CII 230 including IFNγ+IL-17 flow 260 and IFNγ Control flow 275. Columns 240, 250 represent IFNγ+IL-17 flow and IFNγ Control flow, respectively. Peripheral blood lymphocytes were placed in culture (2×10^6/well, 24 well plate) and stimulated with either CII alone (50 μg/ml), CII+A12 peptide (10 μg/ml), or PBS for 5 days. […] Cells were then collected and analyzed by flow cytometry using fluorochrome-labeled antibodies specific for CD4, CD8, CD69, IL-17 and IFNγ. […] Data are based on a minimum of 75,000 events analyzed. The IFNγ Controls (right panels) are based on the fluorescence minus one (FMO) approach whereby the antibody of IFNγ is omitted from these samples to make sure that no fluorochrome was spilling over into the IFNγ detector.

[3] = test system: RA PBMC; test: Stability of HC Peptide 1 stored at 4° C., tested on IFNγ production by RA PBMC; assay type: cell-based, human
Protocol: Approximately 70% of the patients screened should have one or more of the RA shared epitope alleles. If the trend we saw in the small preliminary data sample holds true for the larger sample size, the majority of APL A12 responders will have one or more of the shared epitopes. […] Each month we will prepare a fresh stock solution of APL A12 dissolved in PBS, filter sterilized and stored at 4° C. APL A12 stored at 4° C. in solution retains it biologic activity for >30 days. A fresh solution of α1(II) will also be prepared each month and stored at 4° C. and handled using sterile technique.
HC Peptide 1 was dissolved in phosphate buffered saline and stored at 4° C. for up to five months and then tested and compared in vitro with freshly prepared HC Peptide 1 to inhibit IFNγ production by RA patients PBMC stimulated by α1(II).

[4] = test system: Peyer's Patch cells of DR1 TCRtg+/+ mice; test: Oral APL A12: IL-17 and IL-10 in cultures of Peyer's Patch cells of DR1 TCRtg+/+ mice; assay type: in vivo, mouse
[5] = test system: DR1 Transgenic mice; test: Oral (gavage) APL A12 suppression of CIA in DR1 transgenic mice; assay type: in vivo, mouse; conditions: for arthritis severity: FIG. 1
[6] = test system: DR1 Transgenic mice; test: Effect of A12 on CIA in DR1 Transgenic mice (CII plus A12; intravenous A12 after CII-immunization); assay type: in vivo, mouse; conditions: for Incidence: arthritis incidence
Protocol: as §1

[7] = test system: RA PBMC; test: APL A12 inhibition of IFNγ production by α1(II)-stimulated RA PBMC; assay type: cell-based, human; conditions: for IFNy Stimulation Index: 144 h
Protocol: We assessed the ability of APL A12 added to cultures of PBMC to affect production of IFNγ and other Th1 and Th2 cytokines by the cultured PBMC stimulated with α1(II) from 18 RA patients, 16 of whom had known HLA DR B1 haplotypes. 16 of these patients were taking methothexate, 10 NSAIDS and 12 anti-TNF agents. One patient was taking Arava. Isolated PBMC were resuspended in Dulbecco's minimal essential medium containing penicillin (100 U/ml), streptomycin (100 μg/ml), 9% fetal calf serum (FCS), and non-essential amino acids thereafter referred to as “Complete Medium” at a concentration of 4×10^6 cells/ml. Aliquots (0.5 ml) of the cell suspension were dispensed into wells of 48 well tissue culture plates (NUNC, Roskilde, Denmark).

[8] = mice gavaged with 50 μg APL A12 9 times over 2 weeks, cells cultured with PBS
[9] = mice gavaged with 50 μg APL A12, cells cultured with APL A12 50 μg/ml
[10] = mice gavaged with 50 μg APL A12, cells cultured with CII263-270 50 μg/ml
[11] = mice gavaged with PBS, cells cultured with APL A12 50 μg/ml

Sequence: LGPKGQTGEBGIAGAKGDQGPKGEBGPA [APL A12]
- immunity to CII and arthritis [1]: profoundly suppress
- decrease in the number of IFNγ-producing T cells [2]: 75%
- reduction in IL-17 producing T cells [2]: 42%
- IFNγ Concentration in PBMC Supernatants ([3]; A12 0.1 μg/ml + PBS, A12 stored at 4° C. 6 Days): 26 pg/mL
- IFNγ Concentration in PBMC Supernatants ([3]; A12 0.1 μg/ml + PBS, A12 stored at 4° C. 78 Days): 0 pg/mL
- IFNγ Concentration in PBMC Supernatants ([3]; A12 0.1 μg/ml + PBS, A12 stored at 4° C. 143 Days): 0 pg/mL
- IFNγ Concentration in PBMC Supernatants ([3]; A12 0.1 μg/ml + α1(II) 50 μg/ml, A12 stored at 4° C. 6 Days): 45 pg/mL
- IFNγ Concentration in PBMC Supernatants ([3]; A12 0.1 μg/ml + α1(II) 50 μg/ml, A12 stored at 4° C. 78 Days): 10 pg/mL
- IFNγ Concentration in PBMC Supernatants ([3]; A12 0.1 μg/ml + α1(II) 50 μg/ml, A12 stored at 4° C. 143 Days): 22 pg/mL
- IFNγ Concentration in PBMC Supernatants ([3]; A12 1 μg/ml + PBS, A12 stored at 4° C. 6 Days): 10 pg/mL
- IFNγ Concentration in PBMC Supernatants ([3]; A12 1 μg/ml + PBS, A12 stored at 4° C. 78 Days): 0 pg/mL
- IFNγ Concentration in PBMC Supernatants ([3]; A12 1 μg/ml + PBS, A12 stored at 4° C. 143 Days): 0 pg/mL
- IFNγ Concentration in PBMC Supernatants ([3]; A12 1 μg/ml + α1(II) 50 μg/ml, A12 stored at 4° C. 6 Days): 23 pg/mL
- IFNγ Concentration in PBMC Supernatants ([3]; A12 1 μg/ml + α1(II) 50 μg/ml, A12 stored at 4° C. 78 Days): 37 pg/mL
- IFNγ Concentration in PBMC Supernatants ([3]; A12 1 μg/ml + α1(II) 50 μg/ml, A12 stored at 4° C. 143 Days): 6 pg/mL
- IFNγ Concentration in PBMC Supernatants ([3]; A12 10 μg/ml + PBS, A12 stored at 4° C. 6 Days): 0 pg/mL
- IFNγ Concentration in PBMC Supernatants ([3]; A12 10 μg/ml + PBS, A12 stored at 4° C. 78 Days): 0 pg/mL
- IFNγ Concentration in PBMC Supernatants ([3]; A12 10 μg/ml + PBS, A12 stored at 4° C. 143 Days): 0 pg/mL
- IFNγ Concentration in PBMC Supernatants ([3]; A12 10 μg/ml + α1(II) 50 μg/ml, A12 stored at 4° C. 6 Days): 77 pg/mL
- IFNγ Concentration in PBMC Supernatants ([3]; A12 10 μg/ml + α1(II) 50 μg/ml, A12 stored at 4° C. 78 Days): 82 pg/mL
- IFNγ Concentration in PBMC Supernatants ([3]; A12 10 μg/ml + α1(II) 50 μg/ml, A12 stored at 4° C. 143 Days): 21 pg/mL
- stability: ability to inhibit IFNγ production by α1(II) stimulated RA PBMC after storage ([3]; dissolved in phosphate buffered saline, stored at 4° C. for up to 5 months): retained its ability to inhibit IFNγ production
- time for which biologic activity is retained ([3]; stored at 4° C. in solution (PBS)): > 30 days
- II-10 Levels in Peyer's Patch Cultures [4, 8]: 116 pg/mL
- IL-17 Levels in Peyer's Patch Cultures [4, 8]: 2.4 pg/mL
- II-10 Levels in Peyer's Patch Cultures [4, 9]: 105 pg/mL
- IL-17 Levels in Peyer's Patch Cultures [4, 9]: 1.8 pg/mL
- II-10 Levels in Peyer's Patch Cultures [4, 10]: 94 pg/mL
- IL-17 Levels in Peyer's Patch Cultures [4, 10]: 2.4 pg/mL
- II-10 Levels in Peyer's Patch Cultures [4, 11]: 27 pg/mL
- IL-17 Levels in Peyer's Patch Cultures [4, 11]: 16 pg/mL
- arthritis severity ([5]; 10 μg gavaged 8 days over two weeks before CII immunization): significantly reduced
- arthritis severity ([5]; 50 μg gavaged 8 days over two weeks before CII immunization): significantly reduced
- most effective dose ([5]; given orally by gavage): 50 µg/day
- development of arthritis induced by immunization with bovine CII ([5]; low oral dose (10-50 μg), mice transgenic for human DR1): protects
- CII induced arthritis ([5]; mice bearing a transgene for human DR1): effective in reducing
- Antibodies to CII ([6]; 0.01 mg (so in the source) i.v.): 33 ± 11
- Antibodies to CII ([6]; 0.5 mg total i.v.): 24 ± 7 (p ≦ 0.025)
- Antibodies to CII ([6]; 1 mg total i.v.): 22 ± 9 (p ≦ 0.025)
- antibody production to CII ([6]; DR1-Transgenic mice): significantly decreased
- Incidence ([6]; 0.01 mg (so in the source) i.v. on days 10, 12, 14 after CII-immunization): 5/10
- Incidence ([6]; 0.5 mg total i.v. on days 10, 12, 14 after CII-immunization): 3/10
- Incidence ([6]; 1 mg total i.v. on days 10, 12, 14 after CII-immunization): 1/10 (p = 0.01)
- immunity to CII and arthritis ([6]; high-responder DR1 mice): profoundly suppress
- incidence of arthritis and number of arthritic limbs ([6]; mice immunized with CII plus A12): dose-related decrease
- IFNγ production by RA PBMC ([7]; APL A12 alone, without α1(II), data not shown): no change from PBS control
- RA patients who responded to APL A12 in vitro ([7]; NIH oral CII study): 50%
- patients with IFNγ production down-regulated by ≧50% ([7]; patients with the RA susceptibility shared epitope): 7 of 10
- patients with IFNγ production down-regulated by ≧50% ([7]; patients without the shared epitopes): 2 of 6
- IFNy Stimulation Index ([7]; α1(II) + APL A12 1 μg/ml, individual patients with No Shared Epitope): 49 and 45 and 1120 and 928 and 586 and 75
- IFNy Stimulation Index ([7]; α1(II) + APL A12 1 μg/ml, individual patients with Shared Epitope): 139 and 49 and 742 and 908 and 3190 and 85 and 203 and −65 and −74
- IFNy Stimulation Index ([7]; α1(II) + APL A12 1 μg/ml, individual patients, HLA Unknown): 42 and 228
- IFNy Stimulation Index ([7]; α1(II) + APL A12 10 μg/ml, individual patients with No Shared Epitope): 12 and −3 and 1220 and 807 and 479 and 91
- IFNy Stimulation Index ([7]; α1(II) + APL A12 10 μg/ml, individual patients with Shared Epitope): 291 and 68 and 37 and 1220 and 644 and 2111 and 93 and 110 and −54 and −66
- IFNy Stimulation Index ([7]; α1(II) + APL A12 10 μg/ml, individual patients, HLA Unknown): 73 and 180
- IFNy Stimulation Index ([7]; α1(II) + APL A12 25 μg/ml, individual patients with No Shared Epitope): 16 and 50 and 934 and 778 and 357 and 106
- IFNy Stimulation Index ([7]; α1(II) + APL A12 25 μg/ml, individual patients with Shared Epitope): 15 and 113 and 123 and 493 and 1350 and 2620 and 154 and 83 and −24 and 1
- IFNy Stimulation Index ([7]; α1(II) + APL A12 25 μg/ml, individual patients, HLA Unknown): 121 and 214
